{
  "source": "ChEMBL document CHEMBL5465560",
  "about": "“Selectivity Literature for EUbOPEN Chemogenomic Library” (2024)",
  "key": {"[1]": {"target": "T1, Activin receptor type-1B (Homo sapiens) (UniProt P36896)", "T1 sequence (whole entry)": "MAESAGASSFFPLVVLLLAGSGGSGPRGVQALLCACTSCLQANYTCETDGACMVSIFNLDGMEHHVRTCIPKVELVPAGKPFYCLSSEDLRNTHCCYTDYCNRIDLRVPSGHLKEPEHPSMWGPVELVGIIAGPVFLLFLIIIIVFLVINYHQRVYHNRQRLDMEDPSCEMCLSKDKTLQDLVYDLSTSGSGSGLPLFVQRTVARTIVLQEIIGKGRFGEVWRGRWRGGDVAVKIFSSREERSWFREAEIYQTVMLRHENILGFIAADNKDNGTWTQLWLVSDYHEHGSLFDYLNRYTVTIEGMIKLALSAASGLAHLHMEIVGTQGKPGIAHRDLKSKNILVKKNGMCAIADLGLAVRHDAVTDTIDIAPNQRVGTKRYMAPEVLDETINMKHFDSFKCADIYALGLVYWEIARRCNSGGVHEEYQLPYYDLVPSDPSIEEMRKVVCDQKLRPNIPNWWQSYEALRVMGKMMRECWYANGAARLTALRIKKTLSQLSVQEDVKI", "assay": "Selectivity interaction (KinomeScan (DiscoverX)) EUB0000595a ACVR1B", "conditions": "at 10 µM"}, "[2]": {"target": "Tyrosine-protein kinase Fes/Fps (Homo sapiens) (UniProt P07332)", "sequence (P07332 whole entry)": "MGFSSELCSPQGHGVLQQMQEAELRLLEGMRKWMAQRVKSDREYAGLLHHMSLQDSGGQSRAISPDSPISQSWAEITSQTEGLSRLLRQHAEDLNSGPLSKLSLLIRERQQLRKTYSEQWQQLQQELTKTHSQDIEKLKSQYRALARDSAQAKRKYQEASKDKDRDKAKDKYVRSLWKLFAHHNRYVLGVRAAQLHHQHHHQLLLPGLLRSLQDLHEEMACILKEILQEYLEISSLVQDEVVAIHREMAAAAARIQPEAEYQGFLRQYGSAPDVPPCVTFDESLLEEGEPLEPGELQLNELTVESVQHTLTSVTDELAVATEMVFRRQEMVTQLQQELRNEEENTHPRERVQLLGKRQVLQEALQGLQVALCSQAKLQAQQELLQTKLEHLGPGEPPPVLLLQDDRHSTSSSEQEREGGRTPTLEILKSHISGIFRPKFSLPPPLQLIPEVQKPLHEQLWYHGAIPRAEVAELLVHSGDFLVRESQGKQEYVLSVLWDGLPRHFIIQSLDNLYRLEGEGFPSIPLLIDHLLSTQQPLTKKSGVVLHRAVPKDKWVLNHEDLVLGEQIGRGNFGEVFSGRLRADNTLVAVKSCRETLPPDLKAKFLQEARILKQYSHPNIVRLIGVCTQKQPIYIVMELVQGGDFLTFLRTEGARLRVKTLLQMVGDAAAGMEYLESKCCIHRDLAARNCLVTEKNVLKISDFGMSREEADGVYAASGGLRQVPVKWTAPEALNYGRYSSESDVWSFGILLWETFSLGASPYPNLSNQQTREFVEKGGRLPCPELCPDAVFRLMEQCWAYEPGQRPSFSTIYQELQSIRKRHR", "assay": "Selectivity interaction (KinomeScan (DiscoverX)) EUB0000045b FES"}, "[3]": {"target": "Ribosomal protein S6 kinase alpha-1 (Homo sapiens, UniProt Q15418)", "sequence (Q15418 whole entry)": "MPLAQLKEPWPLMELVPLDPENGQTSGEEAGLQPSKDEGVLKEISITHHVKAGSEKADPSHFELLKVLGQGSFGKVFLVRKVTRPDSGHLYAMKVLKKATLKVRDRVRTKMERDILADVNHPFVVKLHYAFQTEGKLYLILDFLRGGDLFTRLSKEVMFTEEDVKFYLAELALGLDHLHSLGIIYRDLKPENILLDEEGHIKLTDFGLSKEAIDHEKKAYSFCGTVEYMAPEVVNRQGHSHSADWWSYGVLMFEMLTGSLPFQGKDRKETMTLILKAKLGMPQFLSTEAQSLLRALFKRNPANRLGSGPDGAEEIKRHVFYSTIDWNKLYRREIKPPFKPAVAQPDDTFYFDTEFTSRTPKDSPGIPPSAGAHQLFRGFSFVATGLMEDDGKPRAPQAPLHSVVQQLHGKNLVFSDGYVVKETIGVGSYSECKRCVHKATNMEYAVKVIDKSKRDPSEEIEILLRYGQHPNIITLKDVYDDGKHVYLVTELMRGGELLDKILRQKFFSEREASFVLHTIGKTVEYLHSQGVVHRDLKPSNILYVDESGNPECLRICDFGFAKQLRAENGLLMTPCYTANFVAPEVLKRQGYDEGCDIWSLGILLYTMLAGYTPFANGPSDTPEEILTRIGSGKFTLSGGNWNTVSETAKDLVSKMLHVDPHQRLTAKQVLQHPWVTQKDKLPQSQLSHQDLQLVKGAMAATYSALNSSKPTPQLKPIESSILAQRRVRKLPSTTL", "assay": "Selectivity interaction (ActivX KiNativ screen (ex vivo kinase selectivity in human PBMCs)) EUB0001619a RPS6KA1", "assay_type": "cell-based", "conditions": "PBMC, at 1 µM"}, "[4]": {"target": "T2, Serine/threonine-protein kinase 3 (Homo sapiens) (UniProt Q13188)", "T2 sequence (whole entry)": "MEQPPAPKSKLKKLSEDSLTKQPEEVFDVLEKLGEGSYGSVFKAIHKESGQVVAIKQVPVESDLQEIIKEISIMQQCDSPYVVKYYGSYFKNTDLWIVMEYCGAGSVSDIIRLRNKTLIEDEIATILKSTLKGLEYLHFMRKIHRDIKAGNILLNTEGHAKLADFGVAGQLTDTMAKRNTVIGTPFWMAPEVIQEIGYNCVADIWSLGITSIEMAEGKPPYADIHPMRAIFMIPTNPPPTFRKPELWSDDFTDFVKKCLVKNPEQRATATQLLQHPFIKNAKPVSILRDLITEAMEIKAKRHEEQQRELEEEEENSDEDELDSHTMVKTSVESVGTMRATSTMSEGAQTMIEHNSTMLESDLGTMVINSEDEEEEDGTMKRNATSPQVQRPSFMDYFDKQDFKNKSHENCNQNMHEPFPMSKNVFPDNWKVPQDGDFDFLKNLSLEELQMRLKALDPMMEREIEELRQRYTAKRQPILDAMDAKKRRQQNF", "assay": "Selectivity interaction (KinomeScan (DiscoverX)) EUB0000655a STK3", "conditions": "at 10 µM"}, "[5]": {"target": "Protein kinase C delta type (Homo sapiens) (UniProt Q05655)", "sequence (Q05655 whole entry, looked up)": "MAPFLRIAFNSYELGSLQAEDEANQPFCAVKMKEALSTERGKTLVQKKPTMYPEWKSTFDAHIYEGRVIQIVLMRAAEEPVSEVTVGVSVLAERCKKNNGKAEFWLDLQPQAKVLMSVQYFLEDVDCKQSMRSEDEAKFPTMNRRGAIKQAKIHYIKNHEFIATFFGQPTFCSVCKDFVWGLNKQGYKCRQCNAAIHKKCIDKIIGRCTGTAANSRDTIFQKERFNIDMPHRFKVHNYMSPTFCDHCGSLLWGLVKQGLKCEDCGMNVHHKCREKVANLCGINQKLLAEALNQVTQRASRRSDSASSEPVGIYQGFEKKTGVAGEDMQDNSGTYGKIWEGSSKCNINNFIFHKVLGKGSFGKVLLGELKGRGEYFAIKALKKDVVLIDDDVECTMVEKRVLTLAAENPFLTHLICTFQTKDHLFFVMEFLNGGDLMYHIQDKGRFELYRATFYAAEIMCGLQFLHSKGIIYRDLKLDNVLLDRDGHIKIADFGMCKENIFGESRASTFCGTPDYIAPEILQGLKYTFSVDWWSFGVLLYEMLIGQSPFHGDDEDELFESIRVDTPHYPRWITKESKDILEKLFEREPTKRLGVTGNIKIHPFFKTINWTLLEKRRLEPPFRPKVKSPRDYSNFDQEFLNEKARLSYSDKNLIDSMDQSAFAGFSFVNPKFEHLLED", "assay": "Selectivity interaction (SelectScreen profiling (Invitrogen)) EUB0000607a PRKCD", "conditions": "at 2 µM"}},
  "data": [
    {"smiles": "COCC(=O)NC/C=C/c1ccc2ncnc(Nc3ccc(Oc4ccc(C)nc4)c(C)c3)c2c1", "note": "[CP-724714]", "values": [
      {"measurement": "% of control", "setting": "[1]", "result": 100, "unit": "%"}
    ]},
    {"smiles": "C=CC(=O)Nc1cc(-n2c(=O)ccc3cnc4ccc(-c5ccc(NS(C)(=O)=O)cc5)cc4c32)ccc1C", "values": [
      {"measurement": "% of control", "setting": "[2]; at 1 µM", "result": 92, "unit": "%"},
      {"measurement": "% of control", "setting": "[2]; at 10 µM", "result": 100, "unit": "%"}
    ]},
    {"smiles": "N#Cc1cccc(-c2c[nH]c3ncnc(N4CCOCC4)c23)c1", "values": [
      {"measurement": "% of inhibition", "setting": "[3]", "result": -3, "unit": "%"}
    ]},
    {"smiles": "CN(C)CCOc1ccc(-c2nc(-c3ccncc3)c(-c3ccc4c(c3)CC/C4=N\\O)[nH]2)cc1", "values": [
      {"measurement": "% of control", "setting": "[4]", "result": 88, "unit": "%"}
    ]},
    {"smiles": "CNC(=O)Nc1ccc(-c2nc(N3CC4CCC(C3)O4)c3cnn(C4CCC5(CC4)OCCO5)c3n2)cc1", "values": [
      {"measurement": "% of inhibition", "setting": "[5]", "result": 16, "unit": "%"}
    ]}
  ]
}
